Measurements published in ChEMBL document CHEMBL4665869, “New thiazolopyrimidine as anticancer agents: Synthesis, biological evaluation, DNA binding, molecular modeling and ADMET study” (Bioorg Med Chem Lett, 2020).
Calls of active or inactive are those of the source. The calls are words filed in the database; no cut-off is given here.

Experiments:
Type in all cases: functional
786-0 = assay: Growth inhibition of human 786-0 cells at 10 uM relative to control
UACC-62 = assay: Growth inhibition of human UACC-62 cells at 10 uM relative to control
Melanoma cell line = assay: Growth inhibition of human melanoma cancer cells
OVCAR-8 = assay: Growth inhibition of human OVCAR-8 cells at 10 uM relative to control; conditions: read-out: GI
TK-10 = assay: Growth inhibition of human TK-10 cells at 10 uM relative to control
HCT-15 = assay: Growth inhibition of human HCT-15 cells at 10 uM relative to control
IGROV-1 = assay: Growth inhibition of human IGROV-1 cells at 10 uM relative to control
HL-60(TB) = assay: Growth inhibition of human HL-60(TB) cells at 10 uM relative to control
NCI-H226 = assay: Growth inhibition of human NCI-H226 cells at 10 uM relative to control; conditions: read-out: GI
BT-549 = assay: Growth inhibition of human BT-549 cells at 10 uM relative to control
[1] = test system: Panel NCI-60 (60 carcinoma cell lines); assay: Growth inhibition of human NCI60 cells
[2] = Growth inhibition of human prostate cancer cells; conditions: Prostate tumor cell line
SR = assay: Growth inhibition of human SR cells at 10 uM relative to control
HOP-92 = assay: Growth inhibition of human HOP-92 cells at 10 uM relative to control
[3] = read-out: LC50 (the source's name)

## COc1cc(/C=C/C2=CC(c3cc(OC)c(OC)c(OC)c3)N3C=C(C)SC3=N2)cc(OC)c1OC (stereo not given)
786-0
  growth inhibition (GI): Active
UACC-62
  growth inhibition (GI): Active
Melanoma cell line
  GI50: 0.99 µM
  TGI: 3.37 µM
Melanoma cell line; [3]
  CC50: 18.2 µM
OVCAR-8
  inhibition of growth at 10 µM: 91.9%
TK-10
  growth inhibition (GI): Active
HCT-15
  growth inhibition (GI): Active
IGROV-1
  growth inhibition (GI): Active
HL-60(TB)
  growth inhibition (GI): Active
NCI-H226
  inhibition of growth at 10 µM: 97.3%
BT-549
  growth inhibition (GI): Active
[1]
  GI50: 1.07 µM
  LC50: 34.7 µM
  TGI: 6.61 µM
[2]
  GI50: 1.69 µM
  TGI: 52.9 µM
[2]; [3]
  CC50: > 100 µM
SR
  growth inhibition (GI): Active
HOP-92
  growth inhibition (GI): Active
